# According to US20010039952A1, “ULTRASOUND ENHANCED CHEMOTHERAPY” (Walter A. Hacker, Ph. D, priority 1998, published 2001):
# Tests used:
# [1] = system: peritoneal carcinomatosis; experiment: Instillation of chemotherapy directly into the abdomen with low energy ultrasound in a patient with peritoneal carcinomatosis (Examples III, IV); format: in vivo; details: with ultrasound at less than 100 kHz and less than 50 W; intraperitoneal instillation
# Procedure: The chosen drug is dissolved in 100 ml of normal saline, injected into the catheter and followed by another 100 ml of normal saline for flushing. The patient's position is shifted every few minutes for an hour to disperse the drug. […] The chosen drug is bleomycin (15 units), 5-fluorouracil(1000 mg), thiotepa (45 mg) Adriamycin (30 mg) cisplatin, or a-IFN.
# The procedure set forth in Example III is repeated with the chosen drug administered with microbubbles and the interval of repeated doses is further increased.
# [2] = system: hepatic metastases; details: human, in vivo
Compound,interval of repeated doses [1],drug toxicity [2]
bleomycin,increases the interval of repeated doses,–
O=c1[nH]c(=O)n([C@H]2C[C@H](O)[C@@H](CO)O2)cc1F [flexuridine],–,less drug toxicity
N.N.[Cl][Pt][Cl] [cisplatin],increases the interval of repeated doses,–
"COc1cccc2c1C(=O)c1c(O)c3c(c(O)c1C2=O)C[C@@](O)(C(=O)CO)C[C@@H]3O[C@H]1C[C@H](N)[C@H](O)[C@H](C)O1 [Adriamycin, Doxorubicin]",increases the interval of repeated doses,less drug toxicity
O=c1[nH]cc(F)c(=O)[nH]1 [fluorouracil],increases the interval of repeated doses,less drug toxicity
S=P(N1CC1)(N1CC1)N1CC1 [thiotepa],increases the interval of repeated doses,–
